According to ChEMBL document CHEMBL1201862, “PubChem BioAssay data set” (2004):
Active and inactive are the calls of the source.

How the values were obtained:
[1] = test system: Streptococcus sp. 'group A'; test: growth inhibition of control SK(-) GAS strain, dose response, counter-screen for streptokinase expression inhibitor project, luminescence, kanamycin, BacTiterGlo, confirmation (AID 1900); format: functional, organism-based
Streptococcus = test: Group A Streptococcus viability loss, dose response, counter-screen for streptokinase expression inhibitor project, luminescence, BacTiterGlo (AID 1915); format: functional, organism-based;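 also: potency for reduction of bacterial viability or growth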
[2] = human group III sPLA2 inhibitors, dose response, biochemical, QFRET, IC50 (AID 743457);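 also: green fluorescence rise as the enzyme cleaves BODIPY PC-A2 in liposomes; potency for inhibition of the enzyme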
cells [3] = format: functional, cell-based
cells [4] = format: functional, cell-based; remark: listed apart in the source
cells [5] = format: functional, cell-based; remark: listed apart in the source
cells [6] = format: functional, cell-based; remark: listed apart in the source
[7] = target: T1, Oxysterols receptor LXR-beta (Homo sapiens, UniProt P55055); format: functional, cell-based;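 also: agonist activity at LXR measured by a cell-based luminescence readout across a dose range, run as a counterscreen for daf-12 agonists; HEK293 cells with Gal4-LXR fusion and GAL4-driven luciferase reporter; potency for activation of Gal4-LXR reporter so compounds are agonists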
T1 sequence (P55055 whole entry): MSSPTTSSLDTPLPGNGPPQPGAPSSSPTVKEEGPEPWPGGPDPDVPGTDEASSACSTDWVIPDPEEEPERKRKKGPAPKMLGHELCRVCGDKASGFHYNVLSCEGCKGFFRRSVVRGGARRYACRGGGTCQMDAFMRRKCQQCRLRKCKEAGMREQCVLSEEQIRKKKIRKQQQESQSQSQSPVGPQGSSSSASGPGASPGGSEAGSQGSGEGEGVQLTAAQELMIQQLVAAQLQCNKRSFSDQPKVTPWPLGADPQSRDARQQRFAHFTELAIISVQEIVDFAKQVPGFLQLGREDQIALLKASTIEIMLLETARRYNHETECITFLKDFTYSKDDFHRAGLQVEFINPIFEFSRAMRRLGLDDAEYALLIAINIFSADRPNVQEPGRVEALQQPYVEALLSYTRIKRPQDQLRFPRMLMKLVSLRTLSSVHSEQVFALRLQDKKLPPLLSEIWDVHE

Galanin receptor type 3 = Galanin receptor type 3 (Homo sapiens, UniProt O60755); test: Fluorescence-based cell-based primary high throughput dose response assay to identify antagonists of the Galanin Receptor 3 (GalR3).; format: functional
Chain of Galanin receptor type 3 (O60755 whole entry): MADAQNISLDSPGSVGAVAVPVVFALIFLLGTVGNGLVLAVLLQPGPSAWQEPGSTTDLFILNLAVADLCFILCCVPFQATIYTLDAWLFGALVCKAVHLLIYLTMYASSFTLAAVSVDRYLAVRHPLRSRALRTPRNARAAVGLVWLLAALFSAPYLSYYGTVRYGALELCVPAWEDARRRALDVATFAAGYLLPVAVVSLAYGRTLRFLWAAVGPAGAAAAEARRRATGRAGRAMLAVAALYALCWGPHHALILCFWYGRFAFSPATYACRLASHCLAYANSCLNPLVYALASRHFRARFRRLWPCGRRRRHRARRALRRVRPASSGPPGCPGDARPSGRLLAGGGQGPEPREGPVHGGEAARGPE

cells [8] = format: functional, cell-based; details: HEK-CNG
[9] = HEK293T cytotoxicity, dose response, cytotoxicity control for miR-122 modulator project, cell-based, activator set, cherry-pick (AID 720690); format: functional;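 also: HEK293T human cells scored for general mammalian cytotoxicity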
[10] = HEK293T cytotoxicity, dose response, cytotoxicity control for miR-122 modulator project, cell-based, inhibitor set, cherry-pick, set 2 (AID 720697); format: functional
[11] = HeLa cell cytotoxicity, dose response, cytotoxicity control for MgcRacGAP inhibitor project (AID 624300); format: functional
[12] = target: T2, Rac GTPase-activating protein 1 (Homo sapiens, UniProt Q9H0H5); test: MgcRacGAP GTPase-activating activity inhibitors, confirmation, biochemical, ADP Hunter fluorescence, primary and confirmatory (AID 624330); format: functional
T2 sequence (Q9H0H5 whole entry): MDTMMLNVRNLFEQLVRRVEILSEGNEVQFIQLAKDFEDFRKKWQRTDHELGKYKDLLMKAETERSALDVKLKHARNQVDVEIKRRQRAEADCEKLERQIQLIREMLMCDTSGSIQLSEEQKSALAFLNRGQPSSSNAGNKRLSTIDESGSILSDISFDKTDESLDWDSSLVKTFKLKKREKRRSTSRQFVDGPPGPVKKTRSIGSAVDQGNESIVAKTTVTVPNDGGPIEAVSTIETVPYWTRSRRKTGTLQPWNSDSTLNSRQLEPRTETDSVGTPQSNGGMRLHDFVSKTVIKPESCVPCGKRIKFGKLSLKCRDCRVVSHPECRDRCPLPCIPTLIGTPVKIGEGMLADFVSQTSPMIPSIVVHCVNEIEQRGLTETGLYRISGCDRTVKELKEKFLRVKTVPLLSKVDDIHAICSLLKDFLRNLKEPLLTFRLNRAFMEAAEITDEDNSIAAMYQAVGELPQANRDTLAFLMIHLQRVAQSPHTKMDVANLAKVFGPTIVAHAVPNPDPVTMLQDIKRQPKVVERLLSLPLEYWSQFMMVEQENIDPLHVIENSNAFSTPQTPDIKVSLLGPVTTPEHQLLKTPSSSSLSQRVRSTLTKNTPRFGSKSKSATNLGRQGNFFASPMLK

[13] = AlphaScreen signal interference compounds, dose response, artefact control for ARNT-TACC3 interaction inhibitor project, biochemical, luminescence, cherry-pick (AID 651705); format: functional;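 also: AlphaScreen bead proximity signal that flags compounds interfering with the detection technology; potency reflects signal decrease which marks the compound as an assay artifact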
[14] = target: T3, Histone-lysine N-methyltransferase NSD2 (Homo sapiens, UniProt O96028); format: biochemical
T3 sequence (O96028 whole entry): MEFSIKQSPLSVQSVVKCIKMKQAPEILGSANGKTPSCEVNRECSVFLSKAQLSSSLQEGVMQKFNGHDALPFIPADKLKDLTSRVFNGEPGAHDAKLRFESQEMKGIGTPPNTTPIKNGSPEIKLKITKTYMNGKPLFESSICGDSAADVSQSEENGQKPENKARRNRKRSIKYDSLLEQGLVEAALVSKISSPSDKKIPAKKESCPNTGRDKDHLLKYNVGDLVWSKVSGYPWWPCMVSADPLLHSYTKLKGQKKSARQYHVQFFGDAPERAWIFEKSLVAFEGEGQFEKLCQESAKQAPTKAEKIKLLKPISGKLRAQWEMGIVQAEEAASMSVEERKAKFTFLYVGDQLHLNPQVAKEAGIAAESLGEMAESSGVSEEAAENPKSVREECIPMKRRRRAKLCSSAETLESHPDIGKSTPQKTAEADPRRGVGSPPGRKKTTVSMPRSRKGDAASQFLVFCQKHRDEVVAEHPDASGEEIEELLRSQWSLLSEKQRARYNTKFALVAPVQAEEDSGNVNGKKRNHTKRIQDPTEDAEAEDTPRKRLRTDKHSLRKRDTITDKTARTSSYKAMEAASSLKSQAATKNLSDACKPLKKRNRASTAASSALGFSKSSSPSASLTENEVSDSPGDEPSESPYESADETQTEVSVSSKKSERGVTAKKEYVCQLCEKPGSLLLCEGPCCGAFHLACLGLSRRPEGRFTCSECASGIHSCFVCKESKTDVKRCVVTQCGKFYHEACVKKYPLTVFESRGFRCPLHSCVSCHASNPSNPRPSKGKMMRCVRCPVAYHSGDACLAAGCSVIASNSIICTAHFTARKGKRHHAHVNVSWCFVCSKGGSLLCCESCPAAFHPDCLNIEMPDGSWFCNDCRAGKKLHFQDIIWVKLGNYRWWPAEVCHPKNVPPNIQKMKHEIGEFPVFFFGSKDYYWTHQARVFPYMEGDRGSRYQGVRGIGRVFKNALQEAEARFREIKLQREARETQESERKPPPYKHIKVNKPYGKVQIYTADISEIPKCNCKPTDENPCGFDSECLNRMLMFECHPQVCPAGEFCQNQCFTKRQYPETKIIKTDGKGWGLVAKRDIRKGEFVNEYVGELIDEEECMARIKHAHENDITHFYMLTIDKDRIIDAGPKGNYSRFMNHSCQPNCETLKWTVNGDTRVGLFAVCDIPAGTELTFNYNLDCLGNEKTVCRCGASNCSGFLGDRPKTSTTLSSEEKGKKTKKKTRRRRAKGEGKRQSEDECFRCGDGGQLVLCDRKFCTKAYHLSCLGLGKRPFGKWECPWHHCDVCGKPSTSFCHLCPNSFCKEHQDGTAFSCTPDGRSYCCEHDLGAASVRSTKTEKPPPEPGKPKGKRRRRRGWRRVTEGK

[15] = target: T4, Tyrosyl-DNA phosphodiesterase 2 (Homo sapiens, UniProt O95551); test: human TDP2 enzyme inhibitors, dose response, biochemical, epi absorbance, IC50 (AID 743297)
T4 sequence (O95551 whole entry): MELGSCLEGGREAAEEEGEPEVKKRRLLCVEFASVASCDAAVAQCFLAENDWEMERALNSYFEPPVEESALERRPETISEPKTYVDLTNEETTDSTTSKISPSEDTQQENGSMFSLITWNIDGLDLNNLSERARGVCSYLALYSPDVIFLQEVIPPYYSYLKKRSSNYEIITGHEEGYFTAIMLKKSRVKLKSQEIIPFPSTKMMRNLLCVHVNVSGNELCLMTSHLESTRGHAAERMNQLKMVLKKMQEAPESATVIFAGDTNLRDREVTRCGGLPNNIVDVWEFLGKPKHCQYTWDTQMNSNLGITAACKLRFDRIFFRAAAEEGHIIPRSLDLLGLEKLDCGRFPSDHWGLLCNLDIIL

## O=C(Cc1ccccc1)NNC(=S)NC(=O)c1cccs1
[1]
  EC50: 3.33 µM (active)
Streptococcus
  EC50: 7.51 µM (active)
[2]
  IC50: > 122 µM (inactive)

## CCN1CN(CCc2ccccc2)CN=C1S
Cells [3]
  EC50: > 350 µM (not active)
Cells [4]
  EC50: > 350 µM (not active)
Cells [5]
  IC50: > 29.9 µM (inactive)
Cells [6]
  EC50: > 29.9 µM (inactive)

## OCc1ccc(N=Nc2ccccc2)cc1
Cells [3]
  EC50: > 350 µM (not active)
Cells [4]
  EC50: 8.65 µM (active)
[7]
  EC50: > 67.5 µM (inactive)

## CSc1ccc(CN2CCN(C(=O)c3ccc([N+](=O)[O-])cc3)CC2)cc1
Galanin receptor type 3
  IC50: 1.91 µM (active)
Cells [8]
  EC50: > 29.9 µM (inactive)

## CC(=O)c1ccc(Nc2nc3ccc(C)cc3n3cnnc23)cc1
[9]
  AC50: 0.551 µM (active)

## C=CCNC(=S)NNC(=O)Cn1c(-c2ccccc2)cc(=O)n2ncnc12
[10]
  AC50: 4.83 µM (active)

## COc1cc(CCNC2=CC(=O)c3ncccc3C2=O)ccc1O
[11]
  CC50: 21.3 µM (active)
[12]
  IC50: 62.2 µM (active)
[13]
  AC50: 82.2 µM (active)
[14]
  AC50: 1.24 µM (active)
[15]
  IC50: 67.8 µM (inactive)
